Here are results for four compounds from patent US20260001875A1, “AMINOPYRIMIDINYL DERIVATIVES FOR THE TREATMENT OF PARKINSON'S DISEASE” (UNIVERSITY OF DUNDEE, priority 2022, published 2026).

The subject of assay [1] is Rab10 pThr73. The assay is described as follows: Rab10 Thr73 dephosphorylation (immunoblot) in WT MEFs. The format is cell-based, mouse. The settings on record: Mus musculus; for inhibition at 0.033 µM / inhibition at 1 µM: read-out: pRab10 inhibited in WT MEFs; for EC50: dose response, 4 h treatment, read-out: WT MEFs pRab10-dephosphrylation EC50. The procedure, abridged: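 Wild-type mouse embryonic fibroblasts in 6-well plates were treated with LRRK2 PROTACs, with two biological replicates per condition. Cells were washed in PBS and lysed on ice in buffer containing phosphatase and protease inhibitors plus 1% Triton X-100, then clarified at 15,000 g. Rab10 Thr73 phosphorylation was measured by quantitative immunoblotting of 15 to 20 μg protein on 4-12% Bis-Tris gels.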
Background: A western blot detects proteins with antibodies after separation by electrophoresis.

Assay [2] concerns Rab10 pThr73. The assay is described as follows: Rab10 Thr73 dephosphorylation (immunoblot) in LRRK2^G2019S MEFs. The format is cell-based. The settings on record: Mus musculus, read-out: pRab10 inhibited in LRRK2^G2019S MEFs.
Assay [3] deals with LRRK2^WT. The assay is described as follows: Western blot LRRK2 degradation in WT MEFs. In kind it is cell-based, mouse. The following applies: WT MEFs and LRRK2^G2019S MEFs.
Assay [4] relates to Rab10 pThr73. Put plainly: Rab10 Thr73 dephosphorylation (immunoblot) in LRRK2^G2019S MEFs. The format is cell-based, mouse. The following applies: Mus musculus; for inhibition at 1 µM: read-out: pRab10 inhibited in LRRK2^G2019S MEFs; for EC50: dose response, 4 h treatment, read-out: G2019S MEFs-pRab10-dephosphorylation EC50.
Assay [5] deals with T1, LRRK2^G2019S (Mus musculus, UniProt Q5S006, G2019S).
T1 construct: endogenous in cells; host or cells: LRRK2[G2019S] mouse embryonic fibroblasts (MEFs)
T1 sequence (Q5S006 whole entry G2019S): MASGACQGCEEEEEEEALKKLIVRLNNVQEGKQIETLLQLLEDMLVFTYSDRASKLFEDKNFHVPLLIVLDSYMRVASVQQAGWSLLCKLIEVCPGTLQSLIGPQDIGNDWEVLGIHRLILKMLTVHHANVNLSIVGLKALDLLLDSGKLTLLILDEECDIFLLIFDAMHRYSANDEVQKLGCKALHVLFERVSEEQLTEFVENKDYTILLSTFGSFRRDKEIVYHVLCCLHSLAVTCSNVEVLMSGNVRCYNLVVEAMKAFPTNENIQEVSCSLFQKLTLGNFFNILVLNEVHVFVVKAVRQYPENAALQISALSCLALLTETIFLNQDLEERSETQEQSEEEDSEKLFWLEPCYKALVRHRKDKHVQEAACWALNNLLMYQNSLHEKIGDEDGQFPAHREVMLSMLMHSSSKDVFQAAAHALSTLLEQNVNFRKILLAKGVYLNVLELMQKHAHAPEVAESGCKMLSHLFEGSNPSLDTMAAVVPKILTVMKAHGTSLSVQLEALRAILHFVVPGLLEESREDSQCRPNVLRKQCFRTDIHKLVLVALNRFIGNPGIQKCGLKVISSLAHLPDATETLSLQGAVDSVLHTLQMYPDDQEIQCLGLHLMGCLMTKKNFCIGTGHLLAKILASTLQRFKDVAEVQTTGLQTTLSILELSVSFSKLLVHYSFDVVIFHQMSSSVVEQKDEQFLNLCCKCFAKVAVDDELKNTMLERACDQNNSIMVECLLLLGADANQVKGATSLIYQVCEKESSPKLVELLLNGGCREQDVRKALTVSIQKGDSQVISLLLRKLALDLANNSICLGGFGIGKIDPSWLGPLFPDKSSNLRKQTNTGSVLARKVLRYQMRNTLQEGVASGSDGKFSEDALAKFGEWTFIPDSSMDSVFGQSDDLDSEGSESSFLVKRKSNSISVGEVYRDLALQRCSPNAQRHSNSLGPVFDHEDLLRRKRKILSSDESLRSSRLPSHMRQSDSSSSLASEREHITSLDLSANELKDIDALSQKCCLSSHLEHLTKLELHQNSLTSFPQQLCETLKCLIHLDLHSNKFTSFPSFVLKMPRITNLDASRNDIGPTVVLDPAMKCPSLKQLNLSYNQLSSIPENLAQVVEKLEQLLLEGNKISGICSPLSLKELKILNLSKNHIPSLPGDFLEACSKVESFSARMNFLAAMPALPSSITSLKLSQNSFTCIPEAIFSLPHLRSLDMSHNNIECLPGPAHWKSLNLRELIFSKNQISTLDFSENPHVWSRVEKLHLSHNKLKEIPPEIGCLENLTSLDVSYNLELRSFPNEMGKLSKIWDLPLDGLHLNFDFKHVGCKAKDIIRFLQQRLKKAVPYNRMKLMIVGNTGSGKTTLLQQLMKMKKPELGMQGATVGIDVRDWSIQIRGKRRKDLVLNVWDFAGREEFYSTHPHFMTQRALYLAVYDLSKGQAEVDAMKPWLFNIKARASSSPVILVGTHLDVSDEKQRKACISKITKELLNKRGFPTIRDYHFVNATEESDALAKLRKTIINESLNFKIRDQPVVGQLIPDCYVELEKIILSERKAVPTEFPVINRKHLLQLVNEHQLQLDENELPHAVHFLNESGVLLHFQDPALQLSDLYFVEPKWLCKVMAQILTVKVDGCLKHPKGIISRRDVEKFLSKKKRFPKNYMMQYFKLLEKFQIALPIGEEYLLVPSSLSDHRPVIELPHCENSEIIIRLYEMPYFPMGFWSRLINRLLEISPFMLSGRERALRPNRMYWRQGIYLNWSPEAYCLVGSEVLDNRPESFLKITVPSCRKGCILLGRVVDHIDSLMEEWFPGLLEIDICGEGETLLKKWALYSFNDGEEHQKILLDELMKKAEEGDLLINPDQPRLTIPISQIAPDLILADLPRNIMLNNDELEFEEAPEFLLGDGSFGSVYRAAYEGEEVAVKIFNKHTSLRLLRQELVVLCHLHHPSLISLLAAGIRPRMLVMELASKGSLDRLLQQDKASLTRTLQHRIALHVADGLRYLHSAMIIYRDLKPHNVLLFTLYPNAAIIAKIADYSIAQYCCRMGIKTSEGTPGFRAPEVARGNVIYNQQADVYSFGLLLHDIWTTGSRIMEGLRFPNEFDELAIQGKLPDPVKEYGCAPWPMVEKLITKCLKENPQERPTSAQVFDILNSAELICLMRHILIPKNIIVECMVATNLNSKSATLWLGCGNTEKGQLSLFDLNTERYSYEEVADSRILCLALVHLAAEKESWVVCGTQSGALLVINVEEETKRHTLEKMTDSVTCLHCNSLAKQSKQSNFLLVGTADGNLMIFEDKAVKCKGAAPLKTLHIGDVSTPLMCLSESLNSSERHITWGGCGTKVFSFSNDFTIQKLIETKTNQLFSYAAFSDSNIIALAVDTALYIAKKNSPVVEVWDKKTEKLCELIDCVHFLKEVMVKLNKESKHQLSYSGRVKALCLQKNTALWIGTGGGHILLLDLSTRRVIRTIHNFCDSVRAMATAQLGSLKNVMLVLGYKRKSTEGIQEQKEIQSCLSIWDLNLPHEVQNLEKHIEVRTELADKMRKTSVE
Put plainly: Western blot LRRK2 degradation in LRRK2^G2019S MEFs. The format is cell-based. The following applies: for DC50: dose response, 4 h treatment; for Dmax: read-out: Dmax on G2019S MEFs.

Assay [6] addresses T2, LRRK2^WT (Mus musculus, UniProt Q5S006).
T2 construct: endogenous in cells; host or cells: primary wild-type mouse embryonic fibroblasts (MEFs)
Put plainly: Western blot LRRK2 degradation in WT MEFs. In kind it is cell-based. The following applies: for DC50: dose response, 4 h treatment; for Dmax: read-out: Dmax on WT MEFs.

T2 sequence (Q5S006 whole entry): as the sequence (Q5S006 whole entry G2019S) above, with S2019G counted along it

Turning to `CNc1nc(Nc2ccc(C(=O)N3CCN(CCCSC(C)(C)[C@H](NC(=O)C4(F)CC4)C(=O)N4C[C@H](O)C[C@H]4C(=O)NCc4ccc(-c5scnc5C)cc4)CC3)cc2OC)ncc1Cl` [SD82, (2S,4R)-1-((R)-3-((3-(4-(4-((5-chloro-4-(methylamino)pyrimidin-2-yl)amino)-3-methoxybenzoyl)piperazin-1-yl)propyl)thio)-2-(1-fluorocyclopropane-1-carboxamido)-3-methylbutanoyl)-4-hydroxy-N-(4-(4-methylthiazol-5-yl)benzyl)pyrrolidine-2-carboxamide], the inhibition at 0.033 µM in assay [1] (33 nM/4 h treatment) fell in the range of 0 to 25%; in assay [2] (33 nM/4 h treatment), 0 to 60%; in assay [2] (33 nM/24 h treatment) it was 0 to 70%. For the same compound, the inhibition at 1 µM in assay [1] (1 μM/4 h treatment) was 18 to 90%; in assay [1] (1 μM/24 h treatment) it was 30 to 90%; in assay [4] (1 μM/4 h treatment), 30 to 95%. The “LRRK2 degradation (in words)” value in assay [3] was “moderate LRRK2 degradation”.

On to `CNc1nc(Nc2ccc(C(=O)N3CCN(Cc4ccc(CSC(C)(C)[C@H](NC(=O)C5(F)CC5)C(=O)N5C[C@H](O)C[C@H]5C(=O)NCc5ccc(-c6scnc6C)cc5)cc4)CC3)cc2OC)ncc1Cl` [SD100, (2S,4R)-1-((R)-3-((4-((4-(4-((5-chloro-4-(methylamino)pyrimidin-2-yl)amino)-3-methoxybenzoyl)piperazin-1-yl)methyl)benzyl)thio)-2-(1-fluorocyclopropane-1-carboxamido)-3-methylbutanoyl)-4-hydroxy-N-(4-(4-methylthiazol-5-yl)benzyl)pyrrolidine-2-carboxamide], for which the inhibition at 0.033 µM in assay [1] (33 nM/4 h treatment) is 0 to 25%; in assay [2] (33 nM/4 h treatment) it was 0 to 60%; in assay [2] (33 nM/24 h treatment), 0 to 70%. The figures for the inhibition at 1 µM in assay [1] (1 μM/4 h treatment), in assay [1] (1 μM/24 h treatment) and in assay [4] (1 μM/4 h treatment) were 18 to 90%, 30 to 90% and 30 to 95%, respectively. Also, the “LRRK2 degradation (in words)” value in assay [3] is given as “moderate LRRK2 degradation”.

As a reminder, the EC50 is the concentration needed to bring the measured effect to its halfway point. By DC50 is commonly meant the concentration giving 50% degradation. A higher DC50 goes with degradation only at high concentration. What is called Dmax is the largest share of the target that was removed. Turning to `CNc1nc(Nc2ccc(C(=O)N3CCN(C(=O)[C@H]4CC[C@H](CSC(C)(C)[C@H](NC(=O)C5(F)CC5)C(=O)N5C[C@H](O)CC5C(=O)NCc5ccc(-c6scnc6C)cc5)CC4)CC3)cc2OC)ncc1Cl` (stereo partly drawn) [XL02068, (2S,4R)-1-((R)-3-((((1R,4R)-4-(4-(4-((5-chloro-4-(methylamino)pyrimidin-2-yl)amino)-3-methoxybenzoyl)piperazine-1-carbonyl)cyclohexyl)methyl)thio)-2-(1-fluorocyclopropane-1-carboxamido)-3-methylbutanoyl)-4-hydroxy-N-(4-(4-methylthiazol-5-yl)benzyl)pyrrolidine-2-carboxamide], the inhibition at 0.033 µM in assay [1] (33 nM/4 h treatment) was in the range of 0 to 70%; in assay [1] (33 nM/24 h treatment), 0 to 80%; in assay [2] (33 nM/4 h treatment), 0 to 90%; in assay [2] (33 nM/24 h treatment) it was 30 to 90%. Further, the inhibition at 1 µM fell in the range of 80 to 100% in assay [1] (1 μM/4 h treatment), 80 to 100% in assay [1] (1 μM/24 h treatment), 10 to 100% in assay [4] (1 μM/4 h treatment) and 80 to 100% in assay [4] (1 μM/24 h treatment). Moreover, the figures for the 50% effective concentration (EC50) in assay [1] and in assay [4] were 272 nM and 150 nM, respectively. Moreover, the figures for the DC50 in assay [5] and in assay [6] were 103 nM and 93 nM, respectively. In addition, the maximal degradation (Dmax) in assay [5] was found to be 87%; in assay [6], 89%.

Turning to `CNc1nc(Nc2ccc(C(=O)N3CCN(C[C@H]4CC[C@H](CSC(C)(C)[C@H](NC(=O)C5(F)CC5)C(=O)N5C[C@H](O)[C@H](F)C5C(=O)NCc5ccc(-c6scnc6C)cc5)CC4)CC3)cc2OC)ncc1Cl` (stereo partly drawn) [XL02152, (2S,3R,4S)-1-((R)-3-((((1r,4R)-4-((4-(4-((5-chloro-4-(methylamino)pyrimidin-2-yl)amino)-3-methoxybenzoyl)piperazin-1-yl)methyl)cyclohexyl)methyl)thio)-2-(1-fluorocyclopropane-1-carboxamido)-3-methylbutanoyl)-3-fluoro-4-hydroxy-N-(4-(4-methylthiazol-5-yl)benzyl)pyrrolidine-2-carboxamide], the inhibition at 0.033 µM lay within 20 to 40% in assay [1] (33 nM/4 h treatment) and 20 to 50% in assay [2] (33 nM/4 h treatment). The inhibition at 1 µM lay within 75 to 90% in assay [1] (1 μM/4 h treatment) and 80 to 100% in assay [4] (1 μM/4 h treatment). For the same compound, the concentration giving a half-maximal response (EC50) in assay [1] turned out to be 144 nM; in assay [4], 63 nM. The half-maximal degradation concentration (DC50) in assay [5] was 44 nM; in assay [6] it was 62 nM. Further, the Dmax in assay [5] was 80%; in assay [6] it was 68%.
